These results are taken from ChEMBL document CHEMBL1201862, “PubChem BioAssay data set” (2004).

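48-hour exposure; five concentrations; linearly interpolated endpoints. GI50 marks 50% less growth.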 The source made the active and inactive calls. Cut-off read from the data, not from the text of the source: active = GI50 up to about 1.1 µM and inactive = higher. Some results are limits rather than exact numbers.

Holding throughout (assay): growth of human tumour cells (NCI), 48 h
Test [1] has as its system SK-MEL-5.
For test [2], the system named is MCF7.
Test [3] deals with CCRF-CEM.
Test [4] relates to SF-539.
Test [5] relates to SK-OV-3.
The subject of test [6] is TK-10.
In test [7] the test system is NCI/ADR-RES.
The test system of test [8] is OVCAR-8.
Test [9] concerns RXF 393.
The test system of test [10] is PC-3.
Test [11] deals with MDA-N.
Test [12] concerns DU-145.
Test [13] relates to OVCAR-4.
Test [14] deals with SNB-19.
Test [15] concerns CAKI-1.
Test [16] has as its system NCI-H226.
The subject of test [17] is SN12C.
Test [18] has as its system T47D.
In test [19] the test system is UACC-62.

On to `O=C(O)c1cc2ccccc2c(/N=N\c2cc(C(F)(F)F)ccc2Cl)c1O`, for which the GI50 in test [1] was 25.5 µM (inactive); in test [2], > 100 µM (inactive); in [3] it was 33.6 µM (inactive); in test [4] it was 99.3 µM (inactive); in test [5] it was > 100 µM (inactive); in [6], > 100 µM (inactive). Also, the GI50 is 76.2 µM (inactive) in test [7]; 60.8 µM (inactive) in [8]; 35.2 µM (inactive) in [9]; 48.6 µM (inactive) in [10]; > 100 µM (inactive) in test [11]; 74.1 µM (inactive) in [12]. Besides, the GI50 in test [13] is 86.9 µM (inactive); in test [14] it was 1.17 µM (inactive); in test [15], 94.8 µM (inactive); in [16] it was > 100 µM (inactive); in [17], 44.9 µM (inactive); in test [18], 48.8 µM (inactive).
On to `COC(CC1(/C=C/O[Si](C(C)C)(C(C)C)C(C)C)C(=O)N(C)c2ccccc21)OC` (configuration not stated), for which the GI50 in test [1] is 36.8 µM (inactive); in test [2] it was 36.8 µM (inactive); in test [3], 64.7 µM (inactive); in test [5], 35.7 µM (inactive); in test [7] it was 22.9 µM (inactive); in [8] it was 54.3 µM (inactive). For the same compound, the GI50 in test [9] is 59.6 µM (inactive); in [10] it was 49.3 µM (inactive); in test [11], > 100 µM (inactive); in test [12], > 100 µM (inactive); in test [13] it was 34.5 µM (inactive); in test [19], > 100 µM (inactive). Further, the GI50 in test [14] was > 100 µM (inactive); in test [15] it was > 100 µM (inactive); in test [16], 24.1 µM (inactive); in [17], 78.9 µM (inactive); in [18] it was 55.3 µM (inactive).
`N#C/C(=C\c1c(Cl)cccc1Cl)c1ccccc1`: the GI50 in test [1] was 5.51 µM (inactive); in test [3] it was 2.88 µM (inactive); in [4] it was 2.72 µM (inactive); in test [5] it was 6.11 µM (inactive); in [6], 15.8 µM (inactive); in [8] it was 16.4 µM (inactive). Further, the GI50 was 6.12 µM (inactive) in test [9]; 20.1 µM (inactive) in test [13]; 4.88 µM (inactive) in test [19]; 3.66 µM (inactive) in [14]; 8.47 µM (inactive) in [15]; > 22.9 µM (inactive) in [16]. In test [17], the GI50 is 9.82 µM (inactive).
As for `[O-][S+](Nc1ccccc1)c1cccc(Cl)c1` (configuration not stated), the GI50 in test [1] was 42.8 µM (inactive); in test [2], > 100 µM (inactive); in test [3], 50.4 µM (inactive); in test [4] it was 27.5 µM (inactive); in [6], > 100 µM (inactive); in test [7], 34.6 µM (inactive). In addition, the GI50 is 77.1 µM (inactive) in test [8]; 51.1 µM (inactive) in test [9]; 65.9 µM (inactive) in test [10]; > 100 µM (inactive) in test [11]; 75 µM (inactive) in test [12]; > 100 µM (inactive) in test [14]. In addition, the GI50 in test [15] is 91 µM (inactive); in [16], > 100 µM (inactive); in test [17], > 100 µM (inactive).
As to `O=c1c2ccccc2nc(N/N=C/c2ccc(Cl)cc2)n1-c1ccccc1`, the GI50 was > 100 µM (inactive) in test [1]; > 100 µM (inactive) in test [2]; > 100 µM (inactive) in test [3]; 97.3 µM (inactive) in test [4]; > 100 µM (inactive) in [5]; > 100 µM (inactive) in test [6]. In addition, the GI50 in [7] was > 100 µM (inactive); in test [8], 77.1 µM (inactive); in test [9] it was 87.1 µM (inactive); in test [10] it was 49.5 µM (inactive); in test [11], 50.8 µM (inactive); in test [12] it was > 100 µM (inactive). The GI50 was 21.1 µM (inactive) in [13]; > 100 µM (inactive) in [19]; 36.5 µM (inactive) in test [14]; > 100 µM (inactive) in test [15]; > 100 µM (inactive) in test [16]; > 100 µM (inactive) in [17]. Moreover, in test [18], the GI50 is 82.6 µM (inactive).
Regarding `NCCCCNc1ccc2c(=O)[nH][nH]c(=O)c2c1`, the GI50 in [1], in test [3], in test [4], in [5], in test [6] and in test [8] was > 100 µM (inactive) throughout. Besides, the GI50 in [9], in [13], in test [19], in test [14], in [15] and in [16] was > 100 µM (inactive) throughout. Moreover, the GI50 in [17] was > 100 µM (inactive).
As to `COc1cc(C(C)(C)C)c(OC(=O)/C=C/C(=O)O/C=C/[N+](=O)[O-])c(C(C)(C)C)c1`, the GI50 in [1] is 35.3 µM (inactive); in [2], 13.5 µM (inactive); in [3] it was 10.2 µM (inactive); in [4] it was 34.4 µM (inactive); in test [5], > 100 µM (inactive); in test [6], 85.3 µM (inactive). Moreover, the GI50 in test [7] is 23.4 µM (inactive); in [8] it was 36.4 µM (inactive); in [9] it was 27.6 µM (inactive); in [11] it was 44.7 µM (inactive); in [12] it was 38.2 µM (inactive); in test [19], 33.2 µM (inactive). Also, the GI50 is 23.5 µM (inactive) in test [15], 28.1 µM (inactive) in test [16], 41.3 µM (inactive) in [17] and 41.8 µM (inactive) in test [18].
As for `CCC1(O)CC(OC2CC(N(C)C)C(OC3CC(O)C(OC4CCC(=O)C(C)O4)C(C)O3)C(C)O2)c2c(O)c3c(c(O)c2C1C(=O)OC)C(=O)c1cccc(O)c1C3=O` (configuration not stated), the GI50 is 0.00405 µM (active) in test [1]; 0.01 µM (active) in test [2]; 0.00176 µM (active) in test [3]; 0.0101 µM (active) in test [4]; 0.00565 µM (active) in test [5]; 0.015 µM (active) in test [6]. The GI50 was 0.0109 µM (active) in [7]; 0.00174 µM (active) in [8]; 0.00502 µM (active) in [10]; 0.00482 µM (active) in test [11]; 0.00689 µM (active) in test [12]; 0.01 µM (active) in test [13]. For the same compound, the GI50 in test [19] was 0.0101 µM (active); in [14], 0.00457 µM (active); in test [15] it was 0.000267 µM (active); in test [16], 0.0126 µM (active); in test [17], 0.00966 µM (active); in test [18], 0.0154 µM (active).
For the compound `COC(=O)[C@@]1(C)/C(=N/NS(=O)(=O)c2ccc(C)cc2)CCC[C@@H]1C`, the GI50 in test [1] was > 100 µM (inactive); in test [3] it was 27.8 µM (inactive); in test [4] it was 88.3 µM (inactive); in [5], > 100 µM (inactive); in [6] it was > 100 µM (inactive); in test [8], > 100 µM (inactive). In addition, the GI50 in test [9], in test [13], in [19], in test [14], in test [15] and in [16] was > 100 µM (inactive) throughout. The GI50 in test [17] is > 100 µM (inactive).
Regarding `O=C1C=CC(=O)C2=C1[C@@H](O)C1CC=CC3C(=O)O[C@@H]2C31` (some centres not stated), the GI50 was 20.6 µM (inactive) in test [1]; 8.2 µM (inactive) in test [3]; > 43.9 µM (inactive) in test [4]; > 100 µM (inactive) in test [5]; 28.2 µM (inactive) in test [6]; 39.5 µM (inactive) in test [8]. The GI50 is 18 µM (inactive) in [9]; 13.2 µM (inactive) in test [13]; 19.2 µM (inactive) in [19]; > 100 µM (inactive) in [14]; 20.4 µM (inactive) in [15]; 37.5 µM (inactive) in test [16]. Also, the GI50 in [17] was 20.7 µM (inactive).
`CC(=O)OC1CCC2OOC1O2` (configuration not stated): the GI50 in test [1], in test [3], in [4], in [5], in test [6] and in test [8] was > 100 µM (inactive) throughout. The GI50 in [9], in test [13], in test [19], in [14], in test [15] and in [16] was > 100 µM (inactive) each time. For the same compound, the GI50 in test [17] is > 100 µM (inactive).
With `CC/C=C/c1cc2c(cc1O)CCC1C2CC[C@@]2(C)C1CC[C@@H]2O` (some centres not stated), the GI50 is 1.56 µM (inactive) in [1]; 1.08 µM (active) in test [2]; 1.73 µM (inactive) in [3]; 2.43 µM (inactive) in [5]; 1.03 µM (active) in test [6]; 0.667 µM (active) in test [7]. For the same compound, the GI50 in test [8] was 4.31 µM (inactive); in test [9] it was 1.08 µM (active); in test [10] it was 3.49 µM (inactive); in test [11], 0.199 µM (active); in test [12], 2.76 µM (inactive); in test [13], 19.9 µM (inactive). The GI50 in [14] was 2.6 µM (inactive); in test [15] it was 0.524 µM (active); in test [16], 1.47 µM (inactive); in [18] it was 2.86 µM (inactive).
As for `O=S(=O)(c1ccccc1)n1cc(C[P+](c2ccccc2)(c2ccccc2)c2ccccc2)c2ccccc21`, the GI50 was 1.67 µM (inactive) in test [1]; 2.43 µM (inactive) in [3]; 4.59 µM (inactive) in [4]; 2.5 µM (inactive) in test [5]; 3.69 µM (inactive) in test [6]; 2.81 µM (inactive) in test [8]. Also, the GI50 is 6.35 µM (inactive) in test [9]; 9.95 µM (inactive) in [13]; 5.12 µM (inactive) in test [19]; 2.61 µM (inactive) in test [14]; 13.9 µM (inactive) in test [15]; 4.81 µM (inactive) in test [16]. Moreover, the GI50 in [17] was 5.69 µM (inactive).
